{
  "source": "patent US8802815B2",
  "about": "“Peptides and uses thereof to modulate IGF-1 synthesis and IGF-1 receptor expression” (Universite Pierre et Marie Curie (Paris 6), priority 2009, dated 2014)",
  "assay_type_in_all_cases": "cell-based, mouse",
  "key": {"[1]": {"tested_on": "chondrocytes", "test": "[3H] thymidine incorporation in DNA (cell proliferation), primary chondrocytes culture", "experimental": "To assess peptide ability to induce cell proliferation, inventors carried out a test showing [H^3] thymidine incorporation during DNA duplication according to Kurz et al., 1997 method. This test was adapted to the model used by the inventors, namely a primary mouse embryonic chondrocytes culture.\nChondrocytes, obtained by dissociation of mouse mandible condyles (MCDC) were incubated in a culture medium permitting chondrogenesis, in particular, 5×10^5 cells/ml were incubated with 1 μCi [^3H]-thymidine/ml of medium (Amersham, code TRA120, stock 1 mCi/ml, specific activity 5 Ci/mmol) for 3 hours at 37° C. in DMEM medium (Dulbecco's modified Eagle's medium) fetal calf serum (FCS) free but supplemented with 100 μg/ml of ascorbic acid, 1 mmol/L of calcium chloride, 10 mmol/L of 3-glycerophosphate, and antibiotics. Same medium, in which 5 μl of [^3H]-thymidine are added for 2 minutes, is used as negative control. Supernatant was removed and cells were washed twice with saline solution buffered at pH 7.0 (PBS), the cells are washed twice (for 5 minutes) with methanol. Then the cells are washed three times with a 10% trichloroacetic acid (TCA) cold solution. After washing cells twice with DDW, cells are incorporated in 200 μl of 0.3M NaOH for 15 minutes. The cells are then transferred in 3 ml of a neutralized scintillation fluid with 200 μl of 0.3M HCl. […]"}, "[2]": {"tested_on": "IGF-1R", "test": "IGF-1R expression in chondrocytes in culture, optical density (FIG. 2)", "description": "(§1) Inventors investigated P70 effect on IGF-1 synthesis and on expression of its receptor (IGF-1R) by means of chondrocytes in culture."}, "[3]": {"tested_on": "IGF-1", "test": "IGF-1 production in chondrocytes in culture (FIG. 2)", "description": "as §1"}, "[4]": {"tested_on": "IGF-1 receptor", "test": "IGF-1R expression by immunohistochemistry, 5-day primary chondrocytes culture (FIG. 3)", "settings": "IHC, 5-day culture"}, "[5]": {"tested_on": "IGF-1", "test": "IGF-1 synthesis by immunohistochemistry, primary chondrocytes culture (FIG. 4)", "settings": "IHC", "description": "Moreover (FIG. 4), P70 inhibits IGF-1 synthesis at 10^−6M (30% inhibition at a high concentration of peptide) and stimulates IGF-1 synthesis at 10^−7M (90% increase at a low concentration of peptide)."}, "[6]": {"tested_on": "type II collagen", "test": "Type II collagen production by immunochemistry, chondrocytes culture (FIG. 5)", "settings": "10^-7M peptide; 5th day of culture", "experimental": "The mouse embryos chondrocytes obtained according to same protocol as described above were cultured and incubated at a 10^−7M peptide P70 concentration. […] In fact, an increase of 150% is observed relative to the untreated control."}, "[7]": {"tested_on": "chondrocytes", "test": "Chondrogenesis: cartilage nodule formation in chondrocytes culture (FIG. 6)", "settings": "10^-7M peptide; 7th day of incubation; vs untreated chondrocytes", "experimental": "In FIG. 6, the peptide P70 effect at a concentration of 10^−7M is compared with untreated chondrocytes (control). At 7th day of incubation, in the presence of the peptide, accelerated formation of nodules of cartilage is clearly observed. The cartilage nodules development (volume/culture) is 85% accelerated."}},
  "data": [
    {"substance": "Acetyl-SNFGSRKFSYKAKFWTDVTTSELG-amide (Ac-SNFGSRKFSYKAKFWTDVTTSELG-NH2) [P70, 24-mer peptide of the invention, N-terminal acetyl, C-terminal amide]", "values": [
      {"measurement": "stimulatory effect on the proliferation of chondrocytes, greater than the untreated control", "setting": "[1]; 10^-6M peptide, 3 hours", "value": 53, "unit": "%"},
      {"measurement": "stimulation effect on the proliferation of chondrocytes", "setting": "[1]; 10^-7M peptide", "value": "not observed"},
      {"measurement": "effect on the production of IGF-1 receptor", "setting": "[2]; 10^-6M peptide", "value": "virtually inhibits"},
      {"measurement": "effect on expression of IGF-1 receptor (IGF-1R)", "setting": "[2]; 10^-7 M peptide", "value": "important stimulation effect"},
      {"measurement": "effect on the production of IGF-1", "setting": "[3]; 10^-6M peptide", "value": "virtually inhibits"},
      {"measurement": "effect on IGF-1 production", "setting": "[3]; 10^-7 M peptide", "value": "important stimulation effect"},
      {"measurement": "inhibition of IGF-1 receptor expression", "setting": "[4]; 10^-6 M peptide", "value": 36.8, "unit": "%"},
      {"measurement": "increase of IGF-1 receptor expression", "setting": "[4]; 10^-7 M peptide", "value": 23.8, "unit": "%"},
      {"measurement": "inhibition of IGF-1 synthesis", "setting": "[5]; 10^-6M peptide", "value": 30, "unit": "%"},
      {"measurement": "increase of IGF-1 synthesis", "setting": "[5]; 10^-7M peptide", "value": 90, "unit": "%"},
      {"measurement": "increase of type II collagen production relative to the untreated control", "setting": "[6]", "value": 150, "unit": "%"},
      {"measurement": "acceleration of cartilage nodules development (volume/culture)", "setting": "[7]", "value": 85, "unit": "%"}
    ]}
  ]
}
